US7053177B1, “Random peptides that bind to gastro-intestinal tract (GIT) transport receptors and related methods” (Cytogen Corporation, priority 1997, dated 2006)
Ends that are not written are not given here. Peptide text beside a SMILES is read from it. * marks the point of attachment. Dansyl = CN(C)c1cccc2c(S(=O)(=O)*)cccc12; K(dns) = dansyl-lysine

Tested on: P100 membrane fraction of Caco-2 cells
Test: Dansylated peptide ELISA: relative binding of PAX2 and HAX42 peptides to P100 fractions (ratio to ZElan021)
Settings: ratio to ZElan021 = 1.00
Procedure: The peptides and proteins were analyzed by a dansylated peptide ELISA method in which 96 well plates were coated overnight at 4° C. with 100 μl/well coating protein (normally 100 μg/ml P100 membrane fraction) in 0.05M carbonate buffer pH9.6. Nonspecific binding was blocked using 200 μl/well, 2% Marvel/PBS for 2 hours at 37° C. prior to incubation with dansylated peptides. The plates were washed three times with PBS/0.05% Tween 20 and after each subsequent incubation step. […] A buffer blank control was included to ensure that background binding to plastic was not due to the antibodies used in the assay system. […] Plates were developed using 75 μl/well Bionostics TMB substrate and incubated for approximately 10 minutes. The developing reaction was stopped using Bionostics Red Stop solution (25 μl/well), and the optical density of the plates was read at 650 nm. […]

Molecule: H2N—K(dns)PGDYNCCGNGNSTG [ZElan091]
- Binding value at 25 μg/ml (HAX42 peptides, first column): 2.02
- Binding value at 25 μg/ml (HAX42 peptides, second column): 1.37
- Binding value at 25 μg/ml (HAX42 peptides, third column): 1.20

Molecule: H2N—K(dns)NCCGNGNSTG ({K(dns)}-NCCGNGNSTG-NH2; cysteine pairing not given here) [ZElan093]
- Binding value at 25 μg/ml (HAX42 peptides, first column): 1.88
- Binding value at 25 μg/ml (HAX42 peptides, second column): 1.37
- Binding value at 25 μg/ml (HAX42 peptides, third column): 1.33

Molecule: H2N-K(dns)SDHALGTNLRSDNAKEPGDYNCCGNG-CONH2 ({K(dns)}-SDHALGTNLRSDNAKEPGDYNCCGNG-NH2; cysteine pairing not given here) [ZElan06O]
- Binding value at 20 μg/ml (HAX42 peptides): 0.44
- Binding value at 50 μg/ml (HAX42 peptides, first column): 0.56
- Binding value at 50 μg/ml (HAX42 peptides, second column): 0.43

Molecule: CC(C)C[C@H](NC(=O)[C@H](CCCNC(=N)N)NC(=O)[C@H](C)NC(=O)[C@H](CC(N)=O)NC(=O)[C@H](Cc1c[nH]cn1)NC(=O)[C@H](CO)NC(=O)[C@H](CO)NC(=O)[C@@H](N)CCCCNS(=O)(=O)c1cccc2c(N(C)C)cccc12)C(=O)N[C@@H](CCCNC(=N)N)C(=O)N[C@H](C(=O)N[C@@H](CCCNC(=N)N)C(N)=O)[C@@H](C)O [ZElan077] (H-K(Dansyl)SSHNARLRTR-NH2)
- Binding value at 20 μg/ml (PAX2 peptides, first column): 0.20
- Binding value at 50 μg/ml (Jackson Ab) (PAX2 peptides): 0.73
- Binding value at 50 μg/ml (Southern Ab) (PAX2 peptides): 0.52
- Binding value at 50 μg/ml (PAX2 peptides, first column): 0.76
- Binding value at 50 μg/ml (PAX2 peptides, second column): 0.54

Molecule: CC(C)C[C@H](NC(=O)[C@H](CCCNC(=N)N)NC(=O)[C@H](CCCNC(=N)N)NC(=O)[C@H](CC(N)=O)NC(=O)[C@H](Cc1c[nH]cn1)NC(=O)[C@H](CO)NC(=O)[C@H](CO)NC(=O)[C@@H](N)CCCCNS(=O)(=O)c1cccc2c(N(C)C)cccc12)C(=O)N[C@@H](CCCNC(=N)N)C(=O)N[C@H](C(=O)N[C@@H](C)C(N)=O)[C@@H](C)O [ZElan082] (H-K(Dansyl)SSHNRRLRTA-NH2)
- Binding value at 20 μg/ml (PAX2 peptides, first column): 0.00
- Binding value at 50 μg/ml (PAX2 peptides, first column): 0.92
- Binding value at 50 μg/ml (PAX2 peptides, second column): 0.40

Molecule: K(Dansyl)GRNHDVVSSNTHKSYRSPRSASYPRLSNDRTDRTEPAPSS-NH2 [ZElan083]
- Binding value at 20 μg/ml (PAX2 peptides, first column): 0.43
- Binding value at 20 μg/ml (PAX2 peptides, second column): 0.63
- Binding value at 50 μg/ml (PAX2 peptides, second column): 0.88

Molecule: CC(C)[C@H](NC(=O)[C@H](CCCCN)NC(=O)[C@H](CCCNC(=N)N)NC(=O)[C@@H](N)CCCCNS(=O)(=O)c1cccc2c(N(C)C)cccc12)C(=O)N[C@@H](Cc1ccccc1)C(=O)N[C@@H](CC(N)=O)C(=O)N[C@@H](CCCNC(=N)N)C(=O)N[C@@H](CCCNC(=N)N)C(=O)N[C@@H](CCCNC(=N)N)C(=O)N1CCC[C@H]1C(=O)N[C@@H](CO)C(N)=O [ZElan065] (H-K(Dansyl)RKVFNRRRPS-NH2)
- Binding value at 20 μg/ml (HAX42 peptides): 0.00
- Binding value at 50 μg/ml (HAX42 peptides, first column): 0.54
- Binding value at 50 μg/ml (HAX42 peptides, second column): 0.30

Molecule: CN(C)c1cccc2c(S(=O)(=O)NCCCC[C@H](N)C(=O)N[C@@H](CC(N)=O)C(=O)N[C@@H](CCCNC(=N)N)C(=O)N[C@@H](CCCNC(=N)N)C(=O)N[C@@H](CCCNC(=N)N)C(=O)N3CCC[C@H]3C(=O)N[C@@H](CO)C(N)=O)cccc12 [ZElan067, H2N-K(dns)NRRRPS-CONH2] (H-K(Dansyl)NRRRPS-NH2)
- Binding value at 20 μg/ml (HAX42 peptides): 0.08
- Binding value at 50 μg/ml (HAX42 peptides, first column): 0.52
- Binding value at 50 μg/ml (HAX42 peptides, second column): 0.40

Molecule: CC(C)C[C@H](NC(=O)[C@H](CCCNC(=N)N)NC(=O)[C@H](CCCNC(=N)N)NC(=O)[C@@H](N)CCCCNS(=O)(=O)c1cccc2c(N(C)C)cccc12)C(=O)N[C@@H](CCCNC(=N)N)C(=O)N[C@H](C(=O)N[C@@H](CCCNC(=N)N)C(N)=O)[C@@H](C)O [ZElan058, H2N-K(dns)RRLRTR-CONH2] (H-K(Dansyl)RRLRTR-NH2)
- Binding value at 20 μg/ml (PAX2 peptides, first column): 0.05
- Binding value at 50 μg/ml (PAX2 peptides, first column): 0.47
- Binding value at 50 μg/ml (PAX2 peptides, second column): 0.16

Molecule: CC(C)C[C@H](NC(=O)[C@H](CCCNC(=N)N)NC(=O)[C@H](CCCNC(=N)N)NC(=O)[C@H](C)NC(=O)[C@H](Cc1c[nH]cn1)NC(=O)[C@H](CO)NC(=O)[C@H](CO)NC(=O)[C@@H](N)CCCCNS(=O)(=O)c1cccc2c(N(C)C)cccc12)C(=O)N[C@@H](CCCNC(=N)N)C(=O)N[C@H](C(=O)N[C@@H](CCCNC(=N)N)C(N)=O)[C@@H](C)O [ZElan076] (H-K(Dansyl)SSHARRLRTR-NH2)
- Binding value at 20 μg/ml (PAX2 peptides, first column): 0.08
- Binding value at 50 μg/ml (Jackson Ab) (PAX2 peptides): 0.60
- Binding value at 50 μg/ml (Southern Ab) (PAX2 peptides): 0.42
- Binding value at 50 μg/ml (PAX2 peptides, first column): 1.00
- Binding value at 50 μg/ml (PAX2 peptides, second column): 0.41

Molecule: CC(C)C[C@H](NC(=O)[C@H](CCCNC(=N)N)NC(=O)[C@H](CCCNC(=N)N)NC(=O)[C@H](CC(N)=O)NC(=O)[C@H](Cc1c[nH]cn1)NC(=O)[C@H](CO)NC(=O)[C@H](CO)NC(=O)[C@@H](N)CCCCNS(=O)(=O)c1cccc2c(N(C)C)cccc12)C(=O)N[C@@H](CCCNC(=N)N)C(=O)N[C@H](C(=O)N[C@@H](CCCNC(=N)N)C(N)=O)[C@@H](C)O [ZElan035] (H-K(Dansyl)SSHNRRLRTR-NH2)
- Binding value at 20 μg/ml (PAX2 peptides, first column): 0.12
- Binding value at 20 μg/ml (PAX2 peptides, second column): 0.43
- Binding value at 50 μg/ml (PAX2 peptides, first column): 0.81
- Binding value at 50 μg/ml (PAX2 peptides, second column): 0.77

Molecule: CC[C@H](C)[C@H](NC(=O)[C@H](C)NC(=O)[C@H](CO)NC(=O)[C@@H]1CCCN1C(=O)[C@H](CCCNC(=N)N)NC(=O)[C@H](CCCNC(=N)N)NC(=O)[C@H](CCCNC(=N)N)NC(=O)[C@H](CC(N)=O)NC(=O)[C@H](Cc1ccccc1)NC(=O)[C@@H](NC(=O)[C@H](CCCCN)NC(=O)[C@H](CCCNC(=N)N)NC(=O)CNC(=O)[C@@H](NC(=O)[C@H](CO)NC(=O)[C@H](CC(N)=O)NC(=O)CNC(=O)[C@H](CC(N)=O)NC(=O)CNC(=O)[C@H](CS)NC(=O)[C@H](CS)NC(=O)[C@H](CC(N)=O)NC(=O)[C@H](Cc1ccc(O)cc1)NC(=O)[C@H](CC(=O)O)NC(=O)CNC(=O)[C@@H](N)CCCCNS(=O)(=O)c1cccc2c(N(C)C)cccc12)[C@@H](C)O)C(C)C)C(=O)N1CCC[C@H]1C(=O)N[C@H](C(N)=O)[C@@H](C)O [ZElan061] (H-K(Dansyl)GDYNCCGNGNSTGRKVFNRRRPSAIPT-NH2)
- Binding value at 20 μg/ml (HAX42 peptides): 0.20
- Binding value at 50 μg/ml (HAX42 peptides, first column): 0.60
- Binding value at 50 μg/ml (HAX42 peptides, second column): 0.38

Molecule: CC(C)C[C@H](NC(=O)[C@H](CCCNC(=N)N)NC(=O)[C@H](CCCNC(=N)N)NC(=O)[C@H](CC(N)=O)NC(=O)[C@H](Cc1c[nH]cn1)NC(=O)[C@H](C)NC(=O)[C@H](CO)NC(=O)[C@@H](N)CCCCNS(=O)(=O)c1cccc2c(N(C)C)cccc12)C(=O)N[C@@H](CCCNC(=N)N)C(=O)N[C@H](C(=O)N[C@@H](CCCNC(=N)N)C(N)=O)[C@@H](C)O [ZElan074] (H-K(Dansyl)SAHNRRLRTR-NH2)
- Binding value at 20 μg/ml (PAX2 peptides, first column): 0.06
- Binding value at 50 μg/ml (Jackson Ab) (PAX2 peptides): 0.71
- Binding value at 50 μg/ml (Southern Ab) (PAX2 peptides): 0.48
- Binding value at 50 μg/ml (PAX2 peptides, first column): 0.82
- Binding value at 50 μg/ml (PAX2 peptides, second column): 0.52

Molecule: CC(C)C[C@H](NC(=O)[C@H](CCCNC(=N)N)NC(=O)[C@H](CCCNC(=N)N)NC(=O)[C@H](CC(N)=O)NC(=O)[C@H](Cc1c[nH]cn1)NC(=O)[C@H](CO)NC(=O)[C@H](CO)NC(=O)[C@H](Cc1c[nH]cn1)NC(=O)[C@H](CCCCN)NC(=O)[C@H](C)NC(=O)[C@H](CC(N)=O)NC(=O)[C@@H](NC(=O)[C@@H](N)CCCCNS(=O)(=O)c1cccc2c(N(C)C)cccc12)[C@@H](C)O)C(=O)N[C@@H](CCCNC(=N)N)C(=O)N[C@H](C(=O)N[C@@H](CCCNC(=N)N)C(N)=O)[C@@H](C)O [ZElan033] (H-K(Dansyl)TNAKHSSHNRRLRTR-NH2)
- Binding value at 20 μg/ml (PAX2 peptides, first column): 0.35
- Binding value at 50 μg/ml (PAX2 peptides, first column): 0.80
- Binding value at 50 μg/ml (PAX2 peptides, second column): 0.66
